Measured values published in ChEMBL document CHEMBL1765075, “Discovery and structure-activity relationship of 3-aminopyrid-2-ones as potent and selective interleukin-2 inducible T-cell kinase (Itk) inhibitors” (J Med Chem, 2011).
pKi: −log10 of the molar value. Converted amounts (≈) assume the structure as drawn. The source made the active and inactive calls. No cut-off for these calls is given here.

Target: Tyrosine-protein kinase ITK/TSK (Homo sapiens) (UniProt Q08881)
Details: 3 uM
Description: Inhibition of Itk at 3 uM after 40 mins by radiometric phosphate incorporation assay

In the case of N#Cc1ccc(C(=O)Nc2cc(-c3ccncc3)c[nH]c2=O)cc1, the inhibition was 15%.

Target: Mast/stem cell growth factor receptor Kit (Homo sapiens, UniProt P10721)
Sequence (P10721 whole entry): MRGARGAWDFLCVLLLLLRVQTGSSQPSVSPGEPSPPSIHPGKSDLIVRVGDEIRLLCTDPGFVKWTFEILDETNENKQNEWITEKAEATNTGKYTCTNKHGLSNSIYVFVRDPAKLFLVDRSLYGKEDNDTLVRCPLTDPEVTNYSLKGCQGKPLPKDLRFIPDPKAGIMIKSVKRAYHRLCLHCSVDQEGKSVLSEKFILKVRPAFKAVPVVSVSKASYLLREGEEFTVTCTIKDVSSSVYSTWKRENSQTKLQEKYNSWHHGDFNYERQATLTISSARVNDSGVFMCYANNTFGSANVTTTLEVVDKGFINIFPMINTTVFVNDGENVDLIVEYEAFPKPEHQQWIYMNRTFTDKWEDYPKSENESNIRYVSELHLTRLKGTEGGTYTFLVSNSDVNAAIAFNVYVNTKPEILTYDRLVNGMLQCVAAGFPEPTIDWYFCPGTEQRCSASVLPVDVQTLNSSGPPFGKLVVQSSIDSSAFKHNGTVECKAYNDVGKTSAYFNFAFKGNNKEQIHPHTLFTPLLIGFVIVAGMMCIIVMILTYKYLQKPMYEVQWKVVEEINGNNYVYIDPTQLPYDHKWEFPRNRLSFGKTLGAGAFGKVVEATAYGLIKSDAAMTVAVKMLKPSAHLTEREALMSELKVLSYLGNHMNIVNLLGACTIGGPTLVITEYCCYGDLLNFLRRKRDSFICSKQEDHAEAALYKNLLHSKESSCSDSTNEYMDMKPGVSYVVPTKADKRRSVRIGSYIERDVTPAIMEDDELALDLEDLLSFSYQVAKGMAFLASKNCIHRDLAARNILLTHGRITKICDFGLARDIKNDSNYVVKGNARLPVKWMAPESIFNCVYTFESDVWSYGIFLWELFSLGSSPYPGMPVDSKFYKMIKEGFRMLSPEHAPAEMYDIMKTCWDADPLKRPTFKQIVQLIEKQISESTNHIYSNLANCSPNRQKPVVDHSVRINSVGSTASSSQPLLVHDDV
Experiment: Inhibition of c-Kit after 45 mins by radiometric phosphate incorporation assay
Details: not given

CNc1cc(C#N)cc(-c2c[nH]c(=O)c(NC(=O)c3ccc(N4CCC[C@H]4CN4CCCC4)cc3)c2)c1 and CNc1cc(F)cc(-c2c[nH]c(=O)c(NC(=O)c3ccc(N4CCC[C@H]4CN4CCCC4)cc3)c2)c1 are the same in pKi: 6.40 for the first, 6.40 for the second.

Going from CC(C)(C)c1ccc(C(=O)Nc2cc(-c3ccncc3)c[nH]c2=O)cc1 to CN(C)c1ccc(C(=O)Nc2cc(-c3ccncc3)c[nH]c2=O)cc1, the pKi falls from 7.57 to 7.34 (0.23 log units). The first binds more tightly here.

First: CNc1cccc(-c2c[nH]c(=O)c(NC(=O)c3ccc(N4CCCCC4)cc3)c2)c1
Second: CNc1cncc(-c2c[nH]c(=O)c(NC(=O)c3ccc(N4CCCCC4)cc3)c2)c1
The pKi of the first is 0.52 log units higher: 7.09 for the first, 6.57 for the second. The first binds more tightly here.

CNc1cccc(-c2c[nH]c(=O)c(NC(=O)c3ccc(N4CCCCC4)cc3)c2)n1 and CNc1cncc(-c2c[nH]c(=O)c(NC(=O)c3ccc(N4CCCCC4)cc3)c2)n1 are within 0.2 log units of each other in pKi: 6.83 for the first, 6.81 for the second.

First: CNc1cc(-c2c[nH]c(=O)c(NC(=O)c3ccc(N4CCCCC4)cc3)c2)ccn1
Second: CNc1cc(-c2c[nH]c(=O)c(NC(=O)c3ccc(N4CCCCC4)cc3)c2)ncn1
The pKi of the first is 0.84 log units higher: 7.92 for the first, 7.08 for the second. The first binds more tightly here.

First: CNc1cncc(-c2c[nH]c(=O)c(NC(=O)c3ccc(N4CCC[C@H]4CN4CCCC4)cc3)c2)c1
Second: O=C(Nc1cc(-c2ccncc2)c[nH]c1=O)c1ccc(N2CCCCC2)cc1
The pKi of the first is 2.03 log units lower: 5.89 for the first, 7.92 for the second. The second binds more tightly here.

Work on CNc1nccc(-c2c[nH]c(=O)c(NC(=O)c3ccc(N4CCCCC4)cc3)c2)n1 yielded a pKi greater than 8.00.

Test system: not listed separately
Experiment: Octanol-phosphate buffer partition coefficient, log D of the compound at pH 7.4 by HPLC analysis
Assay type: physicochemical
Details: not given

In order of falling logD:
1. CNc1cc(C#N)cc(-c2c[nH]c(=O)c(NC(=O)c3ccc(N4CCC[C@H]4CN4CCCC4)cc3)c2)c1  3.9
2. CNc1cc(F)cc(-c2c[nH]c(=O)c(NC(=O)c3ccc(N4CCC[C@H]4CN4CCCC4)cc3)c2)c1  3.9
3. CNc1cncc(-c2c[nH]c(=O)c(NC(=O)c3ccc(N4CCC[C@H]4CN4CCCC4)cc3)c2)c1  2.9

Test system: not listed separately
Experiment: Permeability across basolateral to apical side of human Caco2 cells after 120 mins by LC-MS/MS analysis
Assay type: ADME, cell-based
Details: Caco-2, read-out: permeability

In order of rising Papp B→A at 2 h:
1. CNc1cc(C#N)cc(-c2c[nH]c(=O)c(NC(=O)c3ccc(N4CCC[C@H]4CN4CCCC4)cc3)c2)c1  16.4 ×10⁻⁶ cm/s
2. CNc1cc(F)cc(-c2c[nH]c(=O)c(NC(=O)c3ccc(N4CCC[C@H]4CN4CCCC4)cc3)c2)c1  19.9 ×10⁻⁶ cm/s

Target: T1, Tyrosine-protein kinase ITK/TSK (Homo sapiens, UniProt Q08881)
T1 sequence (Q08881 whole entry): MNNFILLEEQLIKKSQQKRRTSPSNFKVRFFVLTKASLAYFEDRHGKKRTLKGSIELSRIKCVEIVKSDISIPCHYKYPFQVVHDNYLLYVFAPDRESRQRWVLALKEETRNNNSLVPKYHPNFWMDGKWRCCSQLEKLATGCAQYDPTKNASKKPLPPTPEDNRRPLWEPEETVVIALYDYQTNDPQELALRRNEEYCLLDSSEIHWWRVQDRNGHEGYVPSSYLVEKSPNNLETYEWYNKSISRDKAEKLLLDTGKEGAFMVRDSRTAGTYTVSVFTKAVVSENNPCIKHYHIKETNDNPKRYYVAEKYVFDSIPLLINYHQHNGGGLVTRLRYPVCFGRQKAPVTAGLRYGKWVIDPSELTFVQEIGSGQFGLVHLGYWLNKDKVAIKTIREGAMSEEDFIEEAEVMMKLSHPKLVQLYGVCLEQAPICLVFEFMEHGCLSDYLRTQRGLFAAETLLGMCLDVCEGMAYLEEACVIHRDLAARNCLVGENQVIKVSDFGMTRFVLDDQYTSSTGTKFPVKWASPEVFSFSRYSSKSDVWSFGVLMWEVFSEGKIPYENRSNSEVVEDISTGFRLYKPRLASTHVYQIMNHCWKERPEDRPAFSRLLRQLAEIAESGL
Experiment: Inhibition of Itk after 40 mins by radiometric phosphate incorporation assay
Details: not given

CNc1cc(C#N)cc(-c2c[nH]c(=O)c(NC(=O)c3ccc(N4CCC[C@H]4CN4CCCC4)cc3)c2)c1 and CNc1cc(F)cc(-c2c[nH]c(=O)c(NC(=O)c3ccc(N4CCC[C@H]4CN4CCCC4)cc3)c2)c1 are within 0.2 log units of each other in pKi: 7.57 for the first, 7.70 for the second.

First: CC(C)(C)c1ccc(C(=O)Nc2cc(-c3ccncc3)c[nH]c2=O)cc1
Second: CN(C)c1ccc(C(=O)Nc2cc(-c3ccncc3)c[nH]c2=O)cc1
The pKi of the first is 0.24 log units higher: 6.92 for the first, 6.68 for the second. The first binds more tightly here.

O=C(Nc1cc(-c2ccncc2)c[nH]c1=O)c1ccc(C2CCCCC2)cc1 and O=C(Nc1cc(-c2ccncc2)c[nH]c1=O)c1ccc(N2CCCC2)cc1 are within 0.2 log units of each other in pKi: 6.66 for the first, 6.77 for the second.

First: O=C(Cc1ccccc1)Nc1cc(-c2ccncc2)c[nH]c1=O
Second: O=C(Nc1cc(-c2ccncc2)c[nH]c1=O)c1ccccc1
The pKi of the first is lower: less than 4.52 for the first, 5.89 for the second.

First: CNc1cccc(-c2c[nH]c(=O)c(NC(=O)c3ccc(N4CCCCC4)cc3)c2)c1
Second: CNc1nccc(-c2c[nH]c(=O)c(NC(=O)c3ccc(N4CCCCC4)cc3)c2)n1
The pKi of the first is 0.96 log units lower: 6.84 for the first, 7.80 for the second.

First: O=C(Nc1cc(-c2ccncc2)c[nH]c1=O)C1CCCCC1
Second: O=C(Nc1ccc(N2CCCCC2)cc1)c1cc(-c2ccncc2)c[nH]c1=O
The pKi of the first is lower: less than 4.52 for the first, 6.85 for the second.

First: N#Cc1ccc(C(=O)Nc2cc(-c3ccncc3)c[nH]c2=O)cc1
Second: CCc1ccc(C(=O)Nc2cc(-c3ccncc3)c[nH]c2=O)cc1
The pKi of the first is lower: less than 5.22 for the first, 6.28 for the second.

First: Cc1cccc(C(=O)Nc2cc(-c3ccncc3)c[nH]c2=O)c1
Second: CNc1cncc(-c2c[nH]c(=O)c(NC(=O)c3ccc(N4CCC[C@H]4CN4CCCC4)cc3)c2)c1
The pKi of the first is 2.02 log units lower: 5.68 for the first, 7.70 for the second. The second binds more tightly here.

Compound O=C(Nc1cc(-c2cccc(NC3CC3)n2)c[nH]c1=O)c1ccc(N2CCCCC2)cc1 has a pKi of less than 5.70.

Target: Proto-oncogene tyrosine-protein kinase Src (Homo sapiens, UniProt P12931)
Sequence (P12931 2-536 limits assumed): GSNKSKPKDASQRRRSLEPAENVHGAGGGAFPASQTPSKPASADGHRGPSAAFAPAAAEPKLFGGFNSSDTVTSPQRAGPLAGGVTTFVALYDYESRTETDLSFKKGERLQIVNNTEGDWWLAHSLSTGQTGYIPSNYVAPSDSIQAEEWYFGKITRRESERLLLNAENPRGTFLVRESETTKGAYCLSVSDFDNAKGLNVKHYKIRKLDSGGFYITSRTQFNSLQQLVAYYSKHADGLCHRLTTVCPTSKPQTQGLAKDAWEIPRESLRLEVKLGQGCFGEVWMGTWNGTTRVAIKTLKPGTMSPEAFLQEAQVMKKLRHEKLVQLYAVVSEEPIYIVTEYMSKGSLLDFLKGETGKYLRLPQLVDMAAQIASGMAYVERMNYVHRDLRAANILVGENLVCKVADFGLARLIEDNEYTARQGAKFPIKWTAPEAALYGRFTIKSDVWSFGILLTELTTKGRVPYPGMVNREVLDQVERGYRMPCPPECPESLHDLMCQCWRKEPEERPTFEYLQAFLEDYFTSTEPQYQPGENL
Experiment: Inhibition of Src after 10 mins by radiometric phosphate incorporation assay
Details: not given

Going from CNc1cc(C#N)cc(-c2c[nH]c(=O)c(NC(=O)c3ccc(N4CCC[C@H]4CN4CCCC4)cc3)c2)c1 to CNc1cc(F)cc(-c2c[nH]c(=O)c(NC(=O)c3ccc(N4CCC[C@H]4CN4CCCC4)cc3)c2)c1, the pKi rises from 6.32 to 6.52 (0.20 log units).

Compared with CC(C)(C)c1ccc(C(=O)Nc2cc(-c3ccncc3)c[nH]c2=O)cc1, CN(C)c1ccc(C(=O)Nc2cc(-c3ccncc3)c[nH]c2=O)cc1 is 0.33 log units lower in pKi: 5.88 for the first, 5.55 for the second. The first binds more tightly here.

Going from CNc1cccc(-c2c[nH]c(=O)c(NC(=O)c3ccc(N4CCCCC4)cc3)c2)c1 to O=C(Nc1cc(-c2ccncc2)c[nH]c1=O)c1ccc(N2CCCCC2)cc1, the pKi falls from 6.66 to 5.74 (0.92 log units). The first binds more tightly here.

Going from O=C(Nc1cc(-c2cccc(NC3CC3)n2)c[nH]c1=O)c1ccc(N2CCCCC2)cc1 to CNc1cncc(-c2c[nH]c(=O)c(NC(=O)c3ccc(N4CCC[C@H]4CN4CCCC4)cc3)c2)c1, the pKi rises from less than 5.40 to 6.55. The second binds more tightly here.

Target: Tyrosine-protein kinase ITK/TSK (Homo sapiens) (UniProt Q08881)
Experiment: Inhibition of Itk at 30 uM after 40 mins by radiometric phosphate incorporation assay
Details: not given

With Nc1cc(-c2ccncc2)c[nH]c1=O the inhibition was “inactive”.

Test system: not listed separately
Experiment: Permeability across apical to basolateral side of human Caco2 cells after 120 mins by LC-MS/MS analysis
Assay type: ADME, cell-based
Details: Caco-2, read-out: permeability

In order of rising Papp A→B at 2 h:
1. CNc1cc(C#N)cc(-c2c[nH]c(=O)c(NC(=O)c3ccc(N4CCC[C@H]4CN4CCCC4)cc3)c2)c1  3.3 ×10⁻⁶ cm/s
2. CNc1cc(F)cc(-c2c[nH]c(=O)c(NC(=O)c3ccc(N4CCC[C@H]4CN4CCCC4)cc3)c2)c1  3.3 ×10⁻⁶ cm/s

Test system: not listed separately
Experiment: Solubility of the compound in phosphate buffer at pH 7.4 by high throughput shake flask assay
Assay type: physicochemical
Details: not given

In order of falling solubility thermodynamic:
1. CNc1cncc(-c2c[nH]c(=O)c(NC(=O)c3ccc(N4CCC[C@H]4CN4CCCC4)cc3)c2)c1  115 µg/mL (≈ 243 µM)
2. CNc1cc(F)cc(-c2c[nH]c(=O)c(NC(=O)c3ccc(N4CCC[C@H]4CN4CCCC4)cc3)c2)c1  34 µg/mL (≈ 69.4 µM)
3. CNc1cc(C#N)cc(-c2c[nH]c(=O)c(NC(=O)c3ccc(N4CCC[C@H]4CN4CCCC4)cc3)c2)c1  23 µg/mL (≈ 46.3 µM)

Target: T2, Receptor-type tyrosine-protein kinase FLT3 (Homo sapiens, UniProt P36888)
T2 sequence (P36888 whole entry): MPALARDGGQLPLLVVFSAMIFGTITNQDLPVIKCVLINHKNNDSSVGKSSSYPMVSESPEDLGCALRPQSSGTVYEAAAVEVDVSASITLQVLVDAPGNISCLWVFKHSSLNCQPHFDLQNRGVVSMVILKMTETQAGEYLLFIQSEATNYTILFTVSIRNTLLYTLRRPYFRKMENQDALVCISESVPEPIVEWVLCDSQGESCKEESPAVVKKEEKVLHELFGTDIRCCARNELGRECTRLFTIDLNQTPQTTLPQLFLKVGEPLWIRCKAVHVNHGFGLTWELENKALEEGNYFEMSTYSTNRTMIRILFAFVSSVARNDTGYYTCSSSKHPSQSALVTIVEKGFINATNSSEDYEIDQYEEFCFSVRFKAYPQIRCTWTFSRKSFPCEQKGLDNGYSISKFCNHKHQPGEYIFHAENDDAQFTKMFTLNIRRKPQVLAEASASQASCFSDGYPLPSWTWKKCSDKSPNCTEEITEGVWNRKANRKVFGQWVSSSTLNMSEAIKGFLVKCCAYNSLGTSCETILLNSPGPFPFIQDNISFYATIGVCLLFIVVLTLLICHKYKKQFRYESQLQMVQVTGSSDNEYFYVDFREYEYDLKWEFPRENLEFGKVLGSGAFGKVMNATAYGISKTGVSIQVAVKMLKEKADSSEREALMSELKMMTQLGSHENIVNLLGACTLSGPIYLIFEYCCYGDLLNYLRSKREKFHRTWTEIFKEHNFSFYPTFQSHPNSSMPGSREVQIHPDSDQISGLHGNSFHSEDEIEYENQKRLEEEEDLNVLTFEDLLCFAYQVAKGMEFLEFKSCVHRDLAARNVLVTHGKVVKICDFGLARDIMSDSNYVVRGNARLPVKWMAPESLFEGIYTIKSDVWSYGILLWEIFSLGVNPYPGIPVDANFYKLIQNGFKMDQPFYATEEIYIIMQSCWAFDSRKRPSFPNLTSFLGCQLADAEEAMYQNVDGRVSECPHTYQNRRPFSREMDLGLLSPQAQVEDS
Experiment: Inhibition of Flt3 after 20 mins by radiometric phosphate incorporation assay
Details: not given

In order of rising pKi:
1. CNc1cncc(-c2c[nH]c(=O)c(NC(=O)c3ccc(N4CCCCC4)cc3)c2)c1  5.98
2. CNc1cc(C#N)cc(-c2c[nH]c(=O)c(NC(=O)c3ccc(N4CCC[C@H]4CN4CCCC4)cc3)c2)c1  6.39
3. CNc1cncc(-c2c[nH]c(=O)c(NC(=O)c3ccc(N4CCC[C@H]4CN4CCCC4)cc3)c2)c1  6.85
4. O=C(Nc1cc(-c2cccc(NC3CC3)n2)c[nH]c1=O)c1ccc(N2CCCCC2)cc1  6.92
5. CNc1cncc(-c2c[nH]c(=O)c(NC(=O)c3ccc(N4CCCCC4)cc3)c2)n1  6.96
6. CNc1cc(F)cc(-c2c[nH]c(=O)c(NC(=O)c3ccc(N4CCC[C@H]4CN4CCCC4)cc3)c2)c1  7.10
7. CNc1cccc(-c2c[nH]c(=O)c(NC(=O)c3ccc(N4CCCCC4)cc3)c2)c1  7.10
8. CNc1cccc(-c2c[nH]c(=O)c(NC(=O)c3ccc(N4CCCCC4)cc3)c2)n1  7.16
9. O=C(Nc1cc(-c2ccncc2)c[nH]c1=O)c1ccc(N2CCCCC2)cc1  7.49
10. CNc1cc(-c2c[nH]c(=O)c(NC(=O)c3ccc(N4CCCCC4)cc3)c2)ncn1  7.70
11. CC(C)(C)c1ccc(C(=O)Nc2cc(-c3ccncc3)c[nH]c2=O)cc1  7.96
12. CN(C)c1ccc(C(=O)Nc2cc(-c3ccncc3)c[nH]c2=O)cc1  8.10
13. CNc1cc(-c2c[nH]c(=O)c(NC(=O)c3ccc(N4CCCCC4)cc3)c2)ccn1  8.22
14. CNc1nccc(-c2c[nH]c(=O)c(NC(=O)c3ccc(N4CCCCC4)cc3)c2)n1  8.30
